In patent US8912216B2, “Hetaryl-[1,8]naphthyridine derivatives” (Merck Patent GmbH, priority 2010, dated 2014) one finds IC50 data, which are given here for 3 compounds.

For assay [1], the system named is TGF-beta-induced phosphorylation of Smad2 and Smad3 in Mv1-Lu cells. Put plainly: Inhibition of Smad2/3 phosphorylation in Mv1Lu cells (Example 35A). The format is cell-based, mink Mustela vison. The following applies: Neogale vison, Mv1-Lu cells, TGF-beta 1 5 ng/ml, phospho-Smad2/3 ELISA, read-out: TβR activity (Example 35A). A digest of the protocol: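 Serum-starved (16-20 h) Mv1-Lu mink lung epithelial cells were pre-incubated 1.5 h with compound dilutions (0.2% DMSO), then stimulated 1 h with 5 ng/ml TGF-beta 1. Phospho-Smad2 (Ser465/467)/Smad3 (Ser423/425) in lysates was measured by ELISA. IC50 came from dose-response fits between stimulated and unstimulated controls.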
On the technique in general: In an ELISA, binding on a coated surface is turned into a signal by an enzyme label.

In another assay the target is T1, GST-ALK5 (Homo sapiens, UniProt P36897).
T1 sequence (P36897 34-503): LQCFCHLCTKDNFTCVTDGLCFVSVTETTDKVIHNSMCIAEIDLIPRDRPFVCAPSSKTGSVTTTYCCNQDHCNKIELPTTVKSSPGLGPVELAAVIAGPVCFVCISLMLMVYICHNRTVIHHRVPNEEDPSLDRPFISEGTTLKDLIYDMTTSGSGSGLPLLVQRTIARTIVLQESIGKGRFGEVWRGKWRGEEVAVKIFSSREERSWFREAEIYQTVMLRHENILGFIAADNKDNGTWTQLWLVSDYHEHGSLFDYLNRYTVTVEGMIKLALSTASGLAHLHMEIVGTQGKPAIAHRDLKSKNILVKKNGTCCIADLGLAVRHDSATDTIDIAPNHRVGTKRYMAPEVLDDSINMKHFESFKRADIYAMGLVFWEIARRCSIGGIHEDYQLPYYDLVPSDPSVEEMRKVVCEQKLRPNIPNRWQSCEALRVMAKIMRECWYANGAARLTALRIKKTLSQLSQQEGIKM
Description: In-vitro (enzyme) kinase assay, 384-well flashplate (Example 36). The format is biochemical. The following applies: GST-ALK5, GST-SMAD2 substrate, 3 mM ATP, 30° C., 45 min; read-out: TβR activity (Example 36). The essentials: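 Radiometric flashplate assay: 31.2 nM GST-ALK5 phosphorylating 439 nM GST-SMAD2 with 3 mM ATP plus ³³P-ATP, in HEPES/MgCl2/MnCl2/DTT/BSA buffer pH 7.4, 45 min at 30 °C, 5-10 compound concentrations. EDTA stop, filtration and washing, then radioactivity counted; IC50 derived from the curve.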

For the compound `CNC(=O)c1cccc(-c2cncc(-c3cc(-c4cc(Cl)ccc4F)nc4ncccc34)c2)n1` [compound 127, 5′-[2-(5-Chloro-2-fluoro-phenyl)-[1,8]naphthyridin-4-yl]-[2,3′]bipyridinyl-6-carboxylic acid methylamide], the values for the IC50 (in assay [1]; at GST-ALK5) were over 10 µM and 1 to 10 µM, respectively.
As for `CN1CCN(c2cccc(-c3cncc(-c4cc(-c5cc(Cl)ccc5F)nc5ncccc45)c3)c2)CC1` [compound 116, 2-(5-Chloro-2-fluoro-phenyl)-4-{5-[3-(4-methyl-piperazin-1-yl)-phenyl]-pyridin-3-yl}-[1,8]naphthyridine], the IC50 (in assay [1]; on GST-ALK5) was under 0.1 µM throughout.
With `Cc1cccc(-c2cc(-c3cncc(-c4cnn(C)c4)c3)c3cccnc3n2)n1` [compound 10, 4-[5-(1-Methyl-1H-pyrazol-4-yl)-pyridin-3-yl]-2-(6-methyl-pyridin-2-yl)-[1,8]naphthyridine], the IC50 was 1 to 10 µM in assay [1] and 0.1 to 1 µM on GST-ALK5.
